In the OPERA property sets (Mansouri et al. 2018):

Conditions: not given

SMILES	boiling point [°C]	melting point [°C]	log10 vapour pressure (mmHg)	log10 Koc (L/kg)	log10 Henry constant (atm·m³/mol)	log10 Koa	ready biodegradability	log10 biodegradation half-life (days)
OCC(Cl)(Cl)Cl	152	19						
FCC(F)(F)OC(F)F	43		2.57					
CCOC(=O)Cc1ccccc1	227	-29.4		1.89				
Cc1cc(C2(c3cc(C)c(O)c(Br)c3)OS(=O)(=O)c3ccccc32)cc(Br)c1O		242						
C=CCNC(N)=S		78						
CNc1ccc(O)c2c1C(=O)c1c(O)ccc(NC)c1C2=O		217						
C=CCCC(C)(C)C	104							
CCNc1nc(NCC)nc(SC)n1				2.3				
FC(F)(Cl)CBr	68.4	-76						
C=C(C)c1ccc(C)c2ccc(C=O)c-2c1		58						
CCCCCCC/C=C\C(=O)O		12						
Clc1cc(Cl)c(Cl)cc1Cl	244	140	-2.27	4.1	-3	5.63	not readily biodegradable	
Cc1cc(Cl)cc(Cl)c1Cl	230	45.5						
Clc1cccc(-c2cc(Cl)c(Cl)c(Cl)c2Cl)c1Cl					-4.54			
c1cc[nH]c1	130	-23.4	0.922		-4.74		readily biodegradable	
FC=C(F)Br	19							
CN(C)C(=S)Sc1ccc([N+](=O)[O-])cc1[N+](=O)[O-]		152						
CN(C)Cc1cc(C(C)(C)C)c(O)c(C(C)(C)C)c1		93.5						
CC/C=C\CC1=C(C)CCC1=O	258							
CC(C)CCCCCOC(=O)c1ccccc1C(=O)OCCCCCC(C)C			-5.26	3.21				
CCOP(=S)(OCC)Oc1ccc(=O)n(-c2ccccc2)n1		55	-7.96					
CCS(=O)(=O)c1ccccc1		42						

SMILES	boiling point [°C]	melting point [°C]	log10 vapour pressure (mmHg)	log10 Koc (L/kg)	log10 Henry constant (atm·m³/mol)	log10 Koa	ready biodegradability	log10 biodegradation half-life (days)
CN(C)C(=O)Oc1ccc[n+](C)c1.[Br-]		153						
BrCc1ccc(Br)cc1		63						
COc1cccc(C)c1OC	204							
CCC1CCC(C)C1 (stereo unspecified)			0.799					
CC(=O)c1ccc(-c2ccccc2)cc1	326	121		3.22				
CC1=C(O)C(=O)[C@@H]2O[C@@H]2C1=O		127						
NC(=O)c1cccs1		182						
Nc1c(Cl)cc([N+](=O)[O-])cc1Cl		191	-5.92	3			not readily biodegradable	
C=CCCBr	98.5							
O=C(O)C(Br)(Br)Br		132			-8.48			
CCCCCCCCSC(=O)Oc1cc(Cl)nnc1-c1ccccc1		27	-9.01					
OCC(F)(F)C(F)C(F)(F)F (stereo unspecified)	117							
S=C1SCN(Cc2ccccc2)CN1Cc1ccccc1		102						
CC=C(C)C=CC=C(C)C		-28						
Cc1ccc(Cl)cc1C	194	-6						
CC1=C(C(=O)O)CCC1(C)C	256	135						
CCCC1C(=O)N2C(N(C)C)=Nc3ccc(C)cc3N2C1=O (stereo unspecified)		247						
C=CCF	-3							
ClC(Cl)(Cl)Cl	76.8	-23	2.06	1.85	-1.56	2.79	not readily biodegradable	
C=Cc1ccc(C(=O)O)cc1		144						
O=C(O)COc1nn(Cc2ccccc2)c2ccccc12		160						
C[C@H]1CCC[C@H](C)C1=O	175							

SMILES	boiling point [°C]	melting point [°C]	log10 vapour pressure (mmHg)	log10 Koc (L/kg)	log10 Henry constant (atm·m³/mol)	log10 Koa	ready biodegradability	log10 biodegradation half-life (days)
O=C(CCl)C(Cl)(Cl)Cl	183	65						
Cc1ccc(N(SC(F)(Cl)Cl)S(=O)(=O)N(C)C)cc1		96	-5.82					
Nc1ccc2ncsc2c1		87						
CC(Br)C(Br)C(=O)O (stereo unspecified)		87						
CCOc1ccc(C=O)cc1OCC	279	22						
CC(=O)NCCO		16						
CCO[Si](Cl)(OCC)OCC	156	-51						
CCCCCCCCCCCCc1ccc(N)cc1		40.5					readily biodegradable	
CCC(C)CS (stereo unspecified)	116		1.3					
CC(=O)OOC(=O)c1ccccc1		37						
COc1cccc(C)c1C	199	29						
CC(C)(C)NCC(O)COc1cccc2c1C[C@H](O)[C@H](O)C2 (stereo partly specified)		130						
COC(=O)c1ccc(C)cc1	220	33.2						
CCOC(=O)c1cc([N+](=O)[O-])cc([N+](=O)[O-])c1		94		2.74				
CC=COCC	71.5							
O=C(O)c1ccc(C(=O)O)c2c(C(=O)O)ccc(C(=O)O)c12		320						
CCCCl	46.5	-123	2.54			2.24		
Cc1c([C@H](C)[C@@H]2NC[C@@H](C)C[C@H]2O)ccc2c1C[C@H]1[C@H]2CC=C2C[C@@H](O)CC[C@@]21C		206						
O=[N+]([O-])c1ccc(SCl)c([N+](=O)[O-])c1		99						
C=COCCCl	108	-70	1.43				readily biodegradable	
NC(=O)c1nc(-c2ccccc2)n(-c2ccc(Cl)c(COCC(F)(F)C(F)(F)F)c2)n1		146						
C=C(Br)CC	88	-133						

SMILES	boiling point [°C]	melting point [°C]	log10 vapour pressure (mmHg)	log10 Koc (L/kg)	log10 Henry constant (atm·m³/mol)	log10 Koa	ready biodegradability	log10 biodegradation half-life (days)
CC(N)CN (stereo unspecified)	120		1.03					
CSC(C)C	84.8	-102	1.9					
Clc1ccc(SSc2ccc(Cl)cc2)cc1		68						
COCC(=O)Cl	112							
CCCC(=O)C(=O)O	179	6.5						
Cc1ccc(S(=O)(=O)NC(=O)NN2CCCCCC2)cc1		172						
C=CC(=O)NCO		74.5						
Nc1ccc(C(=O)Oc2ccccc2)c(O)c1		153						
NC(=O)OCC(COC(N)=O)c1ccccc1		152						
CC1(C)S[C@@H]2[C@H](N3C(=O)C(c4ccccc4)NC3(C)C)C(=O)N2[C@H]1C(=O)O (stereo partly specified)		190						
CC(Oc1ccccc1)C(=O)Cl (stereo unspecified)	147							
Cc1cc(C)nc(NS(=O)(=O)c2ccc(N)cc2)n1		198						
O=C(O)c1cc(I)cc(I)c1O		236						
Oc1cc(Br)cc(Br)c1	274	81						
CC(C=NO)=NO		157						
Cc1ccccc1Oc1ccccc1[N+](=O)[O-]		39.5						
O=C1c2ccccc2C(=O)N1c1ccccc1		210						
C[Si](C)(C)O[Si](C)(C)O[Si](C)(C)O[Si](C)(C)O[Si](C)(C)O[Si](C)(C)C	246	-59	-1.53					
Nc1ccccc1O							not readily biodegradable	
CCCCCCCCCCCCCCCCCCCCCCCCCC	412	56.4	-6.33				readily biodegradable	2
CCOC(C)(OCC)OCC	145							
CN(C)CCCN(CCCN(C)C)CCCN(C)C							not readily biodegradable	

SMILES	boiling point [°C]	melting point [°C]	log10 vapour pressure (mmHg)	log10 Koc (L/kg)	log10 Henry constant (atm·m³/mol)	log10 Koa	ready biodegradability	log10 biodegradation half-life (days)
CCCCCCCCCCCCOC(C)=O	265	1.3						
CC(C)CCOC(=O)c1ccccc1O	278						readily biodegradable	
O=C(C(Cl)Cl)C(Cl)(Cl)Cl		2.1						
CC(CN(C)C)CN1c2ccccc2Sc2ccccc21 (stereo unspecified)		68						
O=C(OCc1ccccc1)c1sc(Cl)nc1C(F)(F)F		52	-6.53					
CCOc1ccccc1OS(=O)(=O)NC(O)=Nc1nc(OC)cc(OC)n1		145						
CCCCCC(=O)OC	150	-71	0.57		-3.44			
Cc1c(Cl)cc(Cl)c(Cl)c1Cl	276	94						
O=S(=O)(O)c1ccccc1		65					readily biodegradable	
O=C(CO)[C@@H](O)[C@@H](O)[C@H](O)[C@H](O)CO		151						
CNC(=O)Oc1ccc2c(c1)[C@]1(C)CCN(C)OC1N2C (stereo partly specified)		129						
CCCCCCOC(=O)CCCCC(=O)OCCCCCC			-5.54					
CCCCCCNC(=O)c1ccc(O)c(O)c1		140						
C=COc1ccccc1	156							
O=C(O)CNC(=O)OCc1ccccc1		121						
CC1CCCC(C)N1C(=O)COC(=O)c1ccccc1 (stereo unspecified)		118						
CCCCS	98.5	-116	1.66		-2.34			
ClCCI	140	-15.6						
Nc1ccc(C=O)cc1		71.5						
OCCCc1cccnc1	284							

Same assay, conditions: fish

SMILES	log10 BCF	log10 biotransformation half-life (days)
Clc1cc(Cl)c(Cl)cc1Cl	3.44	1.79
CCOP(=S)(OCC)Oc1ccc(=O)n(-c2ccccc2)n1	0.67	-0.7
ClC(Cl)(Cl)Cl	0.87	-1.19
